# According to ChEMBL document CHEMBL4190261, “Triazole derivatives and their anti-tubercular activity” (Eur J Med Chem, 2017):
# Assays:
# [1] = tested on: Mycobacterium tuberculosis; assay: Potency index, ratio of ethambutol MIC to compound MIC for Mycobacterium tuberculosis H37Rv; assay type: functional
# [2] = tested on: Mycobacterium tuberculosis; assay: Antimycobacterial activity against Mycobacterium tuberculosis H37Rv; assay type: functional
# [3] = tested on: Mycobacterium tuberculosis; assay: Antimycobacterial activity against Mycobacterium tuberculosis H37Rv ATCC 27294 by agar dilution method; assay type: functional
# [4] = molecular target: T1, Pantothenate synthetase (Mycobacterium tuberculosis, UniProt P9WIL5); assay: Inhibition of Mycobacterium tuberculosis pantothenate synthetase
# T1 sequence (P9WIL5 whole entry): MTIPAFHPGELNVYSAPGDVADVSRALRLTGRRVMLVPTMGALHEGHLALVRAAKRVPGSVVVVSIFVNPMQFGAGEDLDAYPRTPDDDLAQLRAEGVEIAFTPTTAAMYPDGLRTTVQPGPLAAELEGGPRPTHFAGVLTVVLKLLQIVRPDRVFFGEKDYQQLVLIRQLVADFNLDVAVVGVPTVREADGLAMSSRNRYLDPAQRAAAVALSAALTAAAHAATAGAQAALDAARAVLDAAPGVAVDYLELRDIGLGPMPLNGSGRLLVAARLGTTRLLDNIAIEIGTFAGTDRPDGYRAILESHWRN
# [5] = tested on: Mycobacterium tuberculosis; assay: Potency index, ratio of linezolid MIC to compound MIC for Mycobacterium tuberculosis H37Rv; assay type: functional
# [6] = tested on: Mycobacterium tuberculosis; assay: Antimycobacterial activity against Mycobacterium tuberculosis H37Rv ATCC 27294 after 5 days by MABA; assay type: functional; details: H37Rv ATCC 27294, 120 h
# [7] = tested on: Mycobacterium tuberculosis; assay: Potency index, ratio of ethambutol MIC to compound MIC for Mycobacterium tuberculosis H37Rv ATCC 27294; assay type: functional
# [8] = Selectivity index, ratio of cytotoxic concentration for HEK293 cells to MIC for Mycobacterium tuberculosis H37Rv ATCC 27294; assay type: toxicity; details: human, read-out: Selectivity Index
# [9] = molecular target: T2, Phosphotyrosine protein phosphatase (Mycobacterium tuberculosis, UniProt A0A045ISB3); assay: Inhibition of Mycobacterium tuberculosis PTPB
# T2 sequence (A0A045ISB3 whole entry): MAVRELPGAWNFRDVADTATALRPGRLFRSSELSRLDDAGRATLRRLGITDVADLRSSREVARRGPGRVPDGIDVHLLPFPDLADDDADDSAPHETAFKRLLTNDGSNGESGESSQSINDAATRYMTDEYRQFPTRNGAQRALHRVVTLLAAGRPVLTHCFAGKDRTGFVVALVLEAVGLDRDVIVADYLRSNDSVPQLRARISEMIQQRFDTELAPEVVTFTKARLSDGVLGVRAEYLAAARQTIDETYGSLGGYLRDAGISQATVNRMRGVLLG
# [10] = tested on: Mycobacterium tuberculosis; assay: Antimycobacterial activity against Mycobacterium tuberculosis MC2 7000; assay type: functional
# [11] = tested on: Mycobacterium tuberculosis; assay: Antimycobacterial activity against Mycobacterium tuberculosis MC2 6230; assay type: functional
# [12] = Mycobacterium tuberculosis, H37Rv
smiles,measurement,setting,value
CCCCCc1ccc(-c2cn(CC(O)COc3ccc4c(c3)OC3(CCCCC3)CC4=O)nn2)cc1 (stereo not given),Ratio,[1],2
same,MIC,[2]; [12],0.78 µg/mL
COc1ccc(-c2nnc(-c3cccnc3)n2Nc2nc3c(Cl)cccc3s2)cc1,MIC99,[2]; [12],25 µg/mL
COc1ccc(-n2cc(Cn3nc(-c4ccccc4)c4c3CCN(C(=O)Nc3ccccc3)C4)nn2)cc1,MIC,[3],24.7 µM
same,IC50,[4],1010 nM
O=C1CC2CN(c3ccc(N4C[C@H](Cn5ccnn5)OC4=O)cc3F)CC2C1 (stereo not given in full),Ratio,[5],2
same,MIC,[2]; [12],0.5 µg/mL
O=C(N/N=C1/C(=O)N(Cc2ccc(Cl)cc2)c2ccccc21)c1ccc(-n2cc(-c3ccccc3)nn2)cc1O,MIC,[6],0.39 µg/mL
same,Ratio,[7],8
same,selectivity ratio,[8],> 128
O=C(CCCCCCn1cc(COc2ccc(-c3cc(C(=O)O)no3)c(C3CCCCC3)c2)nn1)Nc1ccc2cc3ccccc3cc2c1,IC50,[9],170 nM
c1cncc(-c2nn3c(COc4cnccn4)nnc3s2)c1,MIC,[2]; [12],0.4 µg/mL
Clc1cccc(Cl)c1-c1nnc2sc(-c3cccnc3)nn12,MIC,[2]; [12],25 µg/mL
CC1=C(C(=O)O)N2C(=O)[C@@H](NC(=O)[C@H](N)c3ccccc3)[C@H]2SC1 [CEPHALEXIN ANHYDROUS],MIC,[10],0.12 to 144 µM
same,MIC,[11],0.12 to 144 µM
CC[C@@H](CO)NCCN[C@@H](CC)CO [ETHAMBUTOL],MIC,[6],3.13 µg/mL
same,MIC,[2]; [12],1.56 µg/mL
CCc1cc(C(N)=S)ccn1 [ETHIONAMIDE],MIC,[10],0.12 to 144 µM
same,MIC,[11],0.12 to 144 µM
NNC(=O)c1ccncc1 [ISONIAZID],MIC,[6],0.06 µg/mL
same,MIC,[10],0.12 to 144 µM
same,MIC,[2]; [12],0.075 µg/mL
same,MIC,[11],0.12 to 144 µM
CC(=O)NC[C@H]1CN(c2ccc(N3CCOCC3)c(F)c2)C(=O)O1 [LINEZOLID],MIC,[2]; [12],1 µg/mL
NC(=O)c1cnccn1 [PYRAZINAMIDE],MIC,[2]; [12],100 µg/mL
CO[C@H]1/C=C/O[C@@]2(C)Oc3c(C)c(O)c4c(O)c(c(/C=N/N5CCN(C)CC5)c(O)c4c3C2=O)NC(=O)/C(C)=C\C=C\[C@H](C)[C@H](O)[C@@H](C)[C@@H](O)[C@@H](C)[C@H](OC(C)=O)[C@@H]1C [RIFAMPIN],MIC,[6],0.39 µg/mL
same,MIC,[10],0.12 to 144 µM
same,MIC98,[2],40 µg/mL
same,MIC,[2]; [12],0.043 to 0.5 µg/mL
same,MIC,[11],0.12 to 144 µM
